Entries after “also recorded” stand apart in the source; their conditions may differ.
Tests used:
[1] = system: diffuse intrinsic pontine glioma; assay: CED of carboplatin in a patient with diffuse intrinsic pontine glioma
Text: MR imaging under general anaesthetic was undertaken to facilitate pre-operative stereotactic planning (field strength 3 T, Philips Achieva TX, Philips Healthcare, The Netherlands) one week prior to surgery. […] A left transfrontal trajectory for catheter implantation was planned (FIGS. 7a-d) facilitating the in-house manufacture of a bespoke catheter with a winged hub (FIG. 8a). The catheter was manufactured from polyether ether ketone (PEEK) with an outer diameter (OD) of 0.6 mm, which was bonded onto a fused silica cannula with a laser-cut tip (OD 0.23 mm). The catheter was designed to be implanted through a 1 mm OD carbothane guide-tube.
On the day of surgery the patient was anaesthetised and placed in a Leksell frame. A pre-operative CT angiogram was performed and co-registered with the post-contrast T1 weighted planning MRI scan to facilitate output of stereotactic co-ordinates to a Neuro|Mate® neurosurgical robot (Renishaw) (FIG. 8b). A 3 cm left frontal curvilinear scalp incision was made and the periosteum retracted. The robot was driven to the entry position on the skull, and using custom-made hand drills, a multi-featured burr hole made into which the guide tube hub would push fit. The dura was pierced and a 1 mm guide rod inserted to a point 24 mm proximal to the target within the tumour. The guide tube was then implanted on a 0.6 mm guide rod to maintain trajectory. The catheter was tunnelled out through a separate stab incision in the scalp and connected to a custom-made in-line gas and bacterial filter. The catheter was attached to an infusion pump (B Braun, Melsungen, Germany) and primed with artificial cerebrospinal fluid (Torbay Pharmaceutical Manufacturing Unit, Torbay, UK). The fused silica catheter was then implanted via the guide-tube with 3 mm of fused silica retained within the guide tube and 24 mm extending beyond the guide-tube tip, thus creating a “recessed-step” within the distal guide-tube (FIG. 8c). The winged hub of the catheter was turned 90° at the skull and secured with 5 mm titanium screws. […] The skin incision was closed in layers and the externalised catheter tubing secured in a loop on the scalp (FIG. 8d).
Whilst under general anaesthesia the child was transferred to the 3 T MRI scanner. The externalised catheter was attached to a 6 m extension line to allow infusions to be performed from a syringe driver (B Braun) outside of the scan room. Infusions of carboplatin diluted in artificial cerebrospinal fluid to a concentration of 0.09 mg/ml were commenced using the following infusion regime:
0.5 μl/min for 10 minutes, 1 μl/min for 5 minutes, 2.5 μl/min for 5 minutes, 5 μl/min for 5 minutes, 7.5 μl/min until completion.
Serial real-time T2-weighted MRI scans were performed in order to allow areas of hyperintense signal change to be used as a proxy measure for drug distribution. […] Once the Vi:Vd ratio was established the child was recovered from anaesthesia and monitored in a high dependency area until completion of the infusion. […] Infusions of carboplatin were performed on 3 consecutive days in order to maintain exposure to the cytotoxic chemotherapy for at least 72 hours.

[2] = Coinfusion of carboplatin and gadolinium-DTPA into pig corona radiata (T1 MRI, LA-ICP-MS); type: in vivo; conditions: carboplatin 0.03 mg/ml coinfused with 0.3% gadolinium-DTPA, CED
Description: Carboplatin infusions were undertaken into male Large White Landrace pigs weighing 45 kg using a cannula system developed in-house. Pig anaesthesia, head immobilisation and brain imaging were achieved as we have previously described White et al (2010). Infusions of 120 μl 0.03 mg/ml carboplatin mixed with 0.3% (6 μmol/l) Gadolinium-DTPA (Magnevist: Bayer Healthcare, Germany), were undertaken bilaterally into the corona radiata using a cannula composed of a length of fused silica (outer diameter 220 μm, inner diameter 150 μm) bonded to a glass Hamilton syringe. Except for the distal 3 mm, this fused silica tube was supported along its length by a series of zirconia tubes to ensure that it could be accurately inserted to target. Infusions were performed using the following regime: 0.5 μl/min for 5 min, 1 μl/min for 5 min, 2.5 μl/min for 5 min and then 5 μl/min for 20 min. This regime was employed in an attempt to minimise the occurrence of a sudden surge in pressure at the catheter tip due to elasticity in the infusion tubing. 120 μl was infused as this is the largest volume that we have previously infused into pig white matter without leakage into the ventricular system. Following infusion completion, the cannula was left in place for 10 min prior to being withdrawn slowly by hand. CSF leakage from the burr hole and cannula track was sealed with Cerebond prior to wound closure. […]

[3] = one month after completion of infusions

N.N.O=C([O-])C1(C(=O)[O-])CCC1.[Pt+2] [carboplatin]
volume of T2 signal change on completion of final infusion ([1]; after 5 infusions, 0.09 and 0.18 mg/ml): 35.1 mL | volume of distribution (T2-weighted MRI) ([1]; after infusion of 0.52 ml, 0.09 mg/ml in artificial CSF): 2.06 mL | follow-up T2-weighted MR imaging [1, 3]: suggestive of the early stages of tumour necrosis | follow-up post-contrast T1-weighted imaging [1, 3]: tumour progression in the inferior and anterior regions of the tumour | tolerability of infusions ([1]; patient, 0.09-0.18 mg/ml, up to 10 μl/min): well tolerated; also recorded: transient worsening in neurological status | distribution in pig corona radiata (LA-ICP-MS) [2]: widespread carboplatin distribution

Source: patent US20160136284A1, “GLIOMA TREATMENT” (priority 2012, published 2016)
